# Laboratory results as given in patent US20260284078A1, “IMMUNOS[…] AND METHODS THEREOF” (priority 2023, published 2026).
# Legend:
# [1] = Example 5 peripheral drug exposures in blood and plasma; type: in vivo, cynomolgus macaques; details: oral once per day (Dex 0.5 mg/kg, Tac 1 mg/kg, Pred 3 mg/kg); day 21, 4 hours post-dosing
# Source text: FIG. 9. Exemplary peripheral drug exposures in blood and plasma. […] The X axis of the graph denotes immunosuppression agent (dexamethasone, tacrolimus, or prednisolone); the Y axis of the graph depicts ng/ml of the immunosuppression agent as detected in blood for dexamethasone and prednisolone or in plasma for tacrolimus. Each circle represents data collected from one animal.
# [2] = tested on: cynomolgus macaques; assay: Example 5 histopathological lesions in examined animals (Table 1); type: in vivo; details: rAAV 5×10^13 vg/kg IV + regimen, day 22 necropsy
# Source text: FIGS. 10A-10C. […] Columns represent average value for each treatment group. […] Treatment group is denoted at left. […] Magnification is indicated at top. […] Treatment groups of animals are indicated at top.
# [3] = tested on: cynomolgus macaques; assay: Example 5 liver enzymes and total bilirubin in blood (Table 2); details: rAAV 5×10^13 vg/kg IV plus regimen
# Source text: Blood samples were collected from animals on days-7, 4, 8, 15, and 22 (wherein 0=day of rAAV administration) and subsequently analyzed for levels of certain liver enzymes and total bilirubin. […] (D) Level of total bilirubin (TBIL) was quantified. The X axis depicts day of study (wherein 0=day of rAAV administration); the Y axis depicts milligrams (mg) per deciliter (dL) of total bilirubin. Each graphed line corresponds to data collected from one animal. Legend at right identifies treatment group.
# Reduction in liver toxicity upon treatment with rAAV by tested immunosuppression regimens was investigated through measurement of levels of liver enzymes and analysis of liver lesions at necropsy.
compound,measurement,setting,value
"C[C@@H]1C[C@H]2[C@@H]3CCC4=CC(=O)C=C[C@]4(C)[C@@]3(F)[C@@H](O)C[C@]2(C)[C@@]1(O)C(=O)CO [Dex, dexamethasone]",peripheral drug exposure,[1],achieved targeted ranges of peripheral drug exposure
"C[C@]12C=CC(=O)C=C1CC[C@@H]1[C@@H]2[C@@H](O)C[C@@]2(C)[C@H]1CC[C@]2(O)C(=O)CO [Pred, prednisolone]",peripheral drug exposure,[1],achieved targeted ranges of peripheral drug exposure
same,"Dorsal root ganglia, cervical: Infiltrate, mononuclear cell (animals affected, total)",[2]; 3 examined per group,(0)
same,"Dorsal root ganglia, cervical: Infiltrate, mononuclear cell, Minimal (animals)",[2]; 3 examined per group,0
same,"Dorsal root ganglia, lumbar: Degeneration/necrosis, neuron (animals affected, total)",[2]; 3 examined per group,(3)
same,"Dorsal root ganglia, lumbar: Degeneration/necrosis, neuron, Minimal (animals)",[2]; 3 examined per group,3
same,"Dorsal root ganglia, lumbar: Infiltrate, mononuclear cell (animals affected, total)",[2]; 3 examined per group,(3)
same,"Dorsal root ganglia, lumbar: Infiltrate, mononuclear cell, Minimal (animals)",[2]; 3 examined per group,3
same,"Dorsal root ganglia, sacral: Degeneration/necrosis, neuron (animals affected, total)",[2]; 3 examined per group,(1)
same,"Dorsal root ganglia, sacral: Degeneration/necrosis, neuron, Minimal (animals)",[2]; 3 examined per group,1
same,"Dorsal root ganglia, sacral: Infiltrate, mononuclear cell (animals affected, total)",[2]; 3 examined per group,(1)
same,"Dorsal root ganglia, sacral: Infiltrate, mononuclear cell, Mild (animals)",[2]; 3 examined per group,1
same,"Dorsal root ganglia, sacral: Infiltrate, mononuclear cell, Minimal (animals)",[2]; 3 examined per group,0
same,"Dorsal root ganglia, thoracic: Degeneration/necrosis, neuron (animals affected, total)",[2]; 3 examined per group,(1)
same,"Dorsal root ganglia, thoracic: Degeneration/necrosis, neuron, Minimal (animals)",[2]; 3 examined per group,1
same,"Dorsal root ganglia, thoracic: Infiltrate, mononuclear cell (animals affected, total)",[2]; 3 examined per group,(2)
same,"Dorsal root ganglia, thoracic: Infiltrate, mononuclear cell, Minimal (animals)",[2]; 3 examined per group,2
same,"Heart: Degeneration, myocardium (animals affected, total)",[2]; 3 examined per group,(1)
same,"Heart: Degeneration, myocardium, Minimal (animals)",[2]; 3 examined per group,1
same,"Heart: Infiltrate, mononuclear cell, adipose (animals affected, total)",[2]; 3 examined per group,(3)
same,"Heart: Infiltrate, mononuclear cell, adipose, Minimal (animals)",[2]; 3 examined per group,3
same,"Heart: Infiltrate, mononuclear cell, myocardium (animals affected, total)",[2]; 3 examined per group,(2)
same,"Heart: Infiltrate, mononuclear cell, myocardium, Mild (animals)",[2]; 3 examined per group,1
same,"Heart: Infiltrate, mononuclear cell, myocardium, Minimal (animals)",[2]; 3 examined per group,1
same,"Sciatic nerve: Degeneration, nerve fiber (animals affected, total)",[2]; 3 examined per group,(1)
same,"Sciatic nerve: Degeneration, nerve fiber, Minimal (animals)",[2]; 3 examined per group,1
same,"Trigeminal ganglion: Degeneration/necrosis, neuron (animals affected, total)",[2]; 3 examined per group,(2)
same,"Trigeminal ganglion: Degeneration/necrosis, neuron, Minimal (animals)",[2]; 3 examined per group,2
same,"Trigeminal ganglion: Infiltrate, mononuclear cell (animals affected, total)",[2]; 3 examined per group,(2)
same,"Trigeminal ganglion: Infiltrate, mononuclear cell, Minimal (animals)",[2]; 3 examined per group,2
same,"Sympathetic ganglia, thoracic: Infiltrate, mononuclear cell (animals affected, total)","[2]; examined: Dex/Tac 1, Pred 3",(2)
same,"Sympathetic ganglia, thoracic: Infiltrate, mononuclear cell, Minimal (animals)","[2]; examined: Dex/Tac 1, Pred 3",2
same,"Sympathetic ganglia, cervical: Infiltrate, mononuclear cell (animals affected, total)","[2]; examined: Dex/Tac 3, Pred 2",(1)
same,"Sympathetic ganglia, cervical: Infiltrate, mononuclear cell, Minimal (animals)","[2]; examined: Dex/Tac 3, Pred 2",1
same,total bilirubin levels,[3],notable increases
"C=CC[C@@H]1/C=C(\C)C[C@H](C)C[C@H](OC)[C@H]2O[C@@](O)(C(=O)C(=O)N3CCCC[C@H]3C(=O)O[C@H](/C(C)=C/[C@@H]3CC[C@@H](O)[C@H](OC)C3)[C@H](C)[C@@H](O)CC1=O)[C@H](C)C[C@@H]2OC [Tac, tacrolimus]",peripheral drug exposure,[1],achieved targeted ranges of peripheral drug exposure
